Measured values published in article PMC6290777, “Inhalation of the prodrug PI3K inhibitor CL27c improves lung function in asthma and fibrosis” (Nature Communications, 2018).

What was measured:
[1] = In vitro plasma stability; assay type: in vitro ADME, mouse
Experimental: (§1) To define whether this prodrug was suitable for inhaled administration, CL27c was studied to evaluate selected ADME (absorption, distribution, metabolism, and excretion) and pharmacokinetic properties. First, stability of CL27c and CL27e was analyzed in mouse plasma (Supplementary Table 1) and in mouse, rat, and human liver microsomes in the presence of nicotinamide adenine dinucleotide phosphate (NADPH; Supplementary Table 2). Next, clearance of CL27c was analyzed in C57BL/6J mice after either intra-venous or oral administration. […] Clearance of CL27c and CL27e after oral administration could not be determined due to their low bioavailability (Supplementary Table 3). Next, pharmacokinetics after inhalation was studied in C57BL/6J mice after delivering an aerosolized micro-suspension of CL27c. As shown in Table 1 and Supplementary Fig. 1b, CL27c dose-dependently reached the lungs and its metabolite CL27e was detectable after inhalation of the highest dose. […] Therefore, the inhaled prodrug promotes local effects but prevents systemic absorption of pharmacologically relevant amounts of the active compound.
Supplementary Table 1. In vitro plasma half-life (t1/2), (mouse plasma).
Values are the mean of at least triplicate determination in a single experiment.

[2] = Pharmacokinetics of a single dose of CL27c (i.v. or p.o.); assay type: in vivo, C57BL/6J mice; conditions: for Cmax: plasma; for Cmax / AUClast / AUCtot / CL (apparent total body clearance) / F (bioavailability) / Tmax / Vss / Vz / t½ (elimination half-life): label = analyte
Experimental: as §1
Supplementary Table 3. Pharmacokinetic parameters of a single dose of CL27c […]
I.V. (10 mg/kg) P.O. (50 mg/kg) […]
Legend:I.V,. Intravenous administration; P.O., […]; Cmax, Maximum (peak) plasma drug concentration; AUClast Area under the plasma concentration-time curve from time zero to time of last measurable concentration; AUCtot Area under the plasma-concentration time curve; t½, Elimination half -life: CL, Apparent total body clearance of CL27c from plasma; Vz, Apparent volume of distribution during terminal phase; Vss, Apparent volume of distribution at steady state;F, Bioavalability.

[3] = Pharmacokinetics of aerosolized CL27c (analysis of lung delivery); assay type: in vivo, C57BL/6J mice; conditions: for Lung concentration / Plasma concentration: label = analyte; for detectability in plasma after inhalation: aerosolized CL27c, traces only 1 h after the highest dose
Experimental: as §1
Mice were subjected to a 30-min aerosolized treatment with CL27c or vehicle (0.5% tyloxapol/saline solution)-containing solutions, where tyloxapol was added to improve distribution in the lungs. Mice were anesthetized at 1, 3, and 6 h after aerosolized treatment, the trachea was exposed and a 1.7-mm-outside-diameter polyethylene catheter was inserted and they were subsequently sacrificed. A syringe with a needle (27 G) pretreated with heparin was inserted into the vena cava above the renal veins to collect blood. After the collection of blood, lungs were subjected to bronchoalveolar lavage with three different 500 µl aliquots of acetonitrile. At the same time blood samples were centrifuged 180× g at 22 °C for 10 min, plasma supernatant was collected and treated with 1 volume of acetonitrile to precipitate proteins. Samples were then agitated on a high-speed vortex for 2 min and further mixed using a rotary shaker for 2 min. the precipitated proteins were then pelleted by centrifugation at 10,000× g for 10 min and the supernatant was transferred in a new tube. BALF and plasma extracts were subsequently subjected to Liquid chromatography-mass spectrometry.
A Nexera LC-30AD (Shimadzu, Milan, Italy) instrument equipped with a Luna C18 150 × 2.1 mm, 3 µm particle size column (Phenomenex, Milan, Italy) was used to carry out chromatography analysis. The eluents (VWR, Milan, Italy) were acetonitrile (A) and 0.1% formic acid (B) in the following gradient conditions: from 10 to 54% of solvent A in 21 min, up to 100% of A in 2 min and re-equilibration. The injection volume was 10 µL, the flow rate was […] and the column was maintained at the temperature of 40 °C. For the chromatographic separation, an octadecylsilica column was used. The employed mass analyzer was a Q-trap used in multiple reaction-monitoring (MRM) mode. With this technique, it was possible to detect and quantify simultaneously the drug and the metabolite with high selectivity and sensitivity. A QTrap-5500 (Sciex, Milan, Italy) instrument, dressed with a Turbo Ion Spray source, was utilized to analyze samples. The source parameters were: curtain gas 30 (arbitrary units, a.u.), gas1 40 (a.u.), gas2 55 (a.u.), temperature 500 °C, ion spray voltage 5500 V, declustering potential 200 (a.u), and entrance potential 11 (a.u.). The detector was used in MRM mode and the transitions for each compound were: 446 > 418 m/z and 446 > 401 m/z for CL27C (collision energy 29, collision exit potential 26 and 28, respectively); 432 > 387 m/z and 432 > 404 m/z for CL27e (collision energy 30 and 28, collision exit potential 26 and 27, respectively).

class I PI3K = conditions: purified proteins; cited from earlier work
[4] = aerosolized 2 mg/ml CL27c, 1 h from exposure
[5] = aerosolized 2 mg/ml CL27c, 3 h from exposure
[6] = aerosolized 2 mg/ml CL27c, 6 h from exposure

For `O=C(O)c1cccc(Cn2cc(-c3cccc4c(=O)cc(N5CCOCC5)[nH]c34)nn2)c1` [CL27e], the “Concentration in mouse plasma” value ([1]; time point 0 min) was 45.3 ± 14.1 ng/mL, the “Concentration in mouse plasma” value ([1]; time point 30 min) was 43.6 ± 7.4 ng/mL and the “peak plasma concentration relative to CL27c” value ([2]; 5 min after i.v. administration of CL27c) was “twice more abundant than CL27c”. It also gave a Cmax ([2]; CL27c I.V. 10 mg/kg) of 1.90 mg/L, an AUClast ([2]; CL27c I.V. 10 mg/kg) of 0.98 mg·h/L and an AUCtot ([2]; CL27c I.V. 10 mg/kg) of 1.05 mg·h/L. The “CL (apparent total body clearance)” value ([2]; CL27c I.V. 10 mg/kg) was 191 mL/min/kg, the “F (bioavailability)” value ([2]; CL27c I.V. 10 mg/kg) was 91% and the Tmax ([2]; CL27c I.V. 10 mg/kg) was 4.8 min. For the same compound, the Vss ([2]; CL27c I.V. 10 mg/kg) was 13.55 L/kg, the Vz ([2]; CL27c I.V. 10 mg/kg) was 10.75 L/kg and the “t½ (elimination half-life)” value ([2]; CL27c I.V. 10 mg/kg) was 75 min. The Cmax ([2]; CL27c P.O. 50 mg/kg) was 0.29 mg/L, the AUClast ([2]; CL27c P.O. 50 mg/kg) was 0.26 mg·h/L and the AUCtot ([2]; CL27c P.O. 50 mg/kg) was 0.28 mg·h/L. For the same compound, the “F (bioavailability)” value ([2]; CL27c P.O. 50 mg/kg) was 4.80%, the Tmax ([2]; CL27c P.O. 50 mg/kg) was 30 min and the “t½ (elimination half-life)” value ([2]; CL27c P.O. 50 mg/kg) was 25.8 min. The Lung concentration [3, 4] was 4.5 ± 1.0 ng/g, the Plasma concentration [3, 4] was 1.34 ± 0.62 ng/mL and the Lung concentration [3, 5] was 0.1 ± 0.1 ng/g. The Plasma concentration [3, 5] was under 1 ng/mL, the Lung concentration [3, 6] was 0.5 ± 0.2 ng/g and the Plasma concentration [3, 6] was under 1 ng/mL. The “detectability in plasma after inhalation” value [3] was “generally undetectable” and the “activity in PI3K enzymatic assay” value (class I PI3K) was “potent pan-class I PI3K inhibitor, acting at nanomolar concentration”.

With `COC(=O)c1cccc(Cn2cc(-c3cccc4c(=O)cc(N5CCOCC5)[nH]c34)nn2)c1` [CL27c] the “Concentration in mouse plasma” value ([1]; time point 0 min) was 113.2 ± 12.8 ng/mL, the “Concentration in mouse plasma” value ([1]; time point 30 min) was 6.2 ± 2.8 ng/mL and the Cmax ([2]; CL27c I.V. 10 mg/kg) was 0.93 mg/L. For the same compound, the AUClast ([2]; CL27c I.V. 10 mg/kg) was 0.87 mg·h/L, the AUCtot ([2]; CL27c I.V. 10 mg/kg) was 0.87 mg·h/L and the “CL (apparent total body clearance)” value ([2]; CL27c I.V. 10 mg/kg) was 191 mL/min/kg. The “F (bioavailability)” value ([2]; CL27c I.V. 10 mg/kg) was 100%, the Tmax ([2]; CL27c I.V. 10 mg/kg) was 4.8 min and the Vss ([2]; CL27c I.V. 10 mg/kg) was 13.55 L/kg. For the same compound, the Vz ([2]; CL27c I.V. 10 mg/kg) was 10.75 L/kg, the “t½ (elimination half-life)” value ([2]; CL27c I.V. 10 mg/kg) was 39 min and the Cmax ([2]; CL27c P.O. 50 mg/kg) was 0.22 mg/L. The AUClast ([2]; CL27c P.O. 50 mg/kg) was 0.15 mg·h/L, the AUCtot ([2]; CL27c P.O. 50 mg/kg) was 0.39 mg·h/L and the “F (bioavailability)” value ([2]; CL27c P.O. 50 mg/kg) was 3.40%. The Tmax ([2]; CL27c P.O. 50 mg/kg) was 30 min, the “t½ (elimination half-life)” value ([2]; CL27c P.O. 50 mg/kg) was 63 min and the Lung concentration ([3]; aerosolized 0.2 mg/ml CL27c, 1 h from exposure) was 32.6 ± 5.1 ng/g. It also gave a Lung concentration ([3]; aerosolized 0.2 mg/ml CL27c, 3 h from exposure) of 10.9 ± 0.5 ng/g, a Lung concentration ([3]; aerosolized 0.2 mg/ml CL27c, 6 h from exposure) of 10.9 ± 1.8 ng/g and a Lung concentration [3, 4] of 169.2 ± 17.7 ng/g. The Plasma concentration [3, 4] was 1.2 ± 0.1 ng/mL, the Lung concentration [3, 5] was 34.2 ± 5.2 ng/g and the Lung concentration [3, 6] was 41.6 ± 6.5 ng/g. For the same compound, the “detectability in plasma after inhalation” value [3] was “generally undetectable” and the “activity in PI3K enzymatic assay” value (class I PI3K) was “inactive”.
